Where a name gives a salt, the structure may show the parent alone. Read-outs that look alike come from different tables or passages of the source.
Test system: Aβ1-42 production
Assay: Cellular assay for inhibition of Aβ1-42 production (H4 APP751 SWE clone 8.20)
Assay type: cell-based
Details: H4 APP751 SWE clone 8.20 cells, 19 h incubation
Procedure, shortened: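 Secreted peptide was quantified with a two-antibody homogeneous format combining Wallac-labelled 565, which recognises the Aβ42 end, and APC-labelled 26D6 at 0.8 and 75 ng/well respectively. Antibodies were diluted in 40 mM Tris-HCl, pH 7.4, 0.2% BSA and left overnight at 4 °C after a 19 h compound incubation.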

[1] = 19 h, class symbols, read-out: Activity Rating (Aβ42 cellular IC50)
[2] = 19 h, read-out: Activity Rating (Aβ42 cellular IC50), numeric value
[3] = class symbols, read-out: Activity Rating (Aβ42 cellular IC50)

IC50 [1] [µM]	other results	SMILES
0.1 to 1		CCN(C)c1nc(Nc2ccc(-n3cnc(Cl)c3)c(OC)c2)nc2c1CNCC2c1ccc(F)cc1 (stereo not shown) [Example 161, N2-(4-(4-chloro-1H-imidazol-1-yl)-3-methoxyphenyl)-N4-ethyl-8-(4-fluorophenyl)-N4-methyl-5,6,7,8-tetrahydropyrido[4,3-d]pyrimidine-2,4-diamine]
0.0015 to 0.0099		CNc1nc(Nc2ccc(-n3cnc(Cl)c3)c(OC)c2)nc2c1CCC2c1ccc(F)cc1 (stereo not shown) [Example 11, N^2-(4-(4-Chloro-1H-imidazol-1-yl)-3-methoxyphenyl)-7-(4-fluorophenyl)-N^4-methyl-6,7-dihydro-5H-cyclopenta[d]pyrimidine-2,4-diamine]
0.01 to 0.1		CCOCCCNc1nc(Nc2ccc(-n3cnc(Cl)c3)c(OC)c2)nc2c1CCC2c1ccc(F)cc1 (stereo not shown) [Example 42, N2-(4-(4-chloro-1H-imidazol-1-yl)-3-methoxyphenyl)-N4-(3-ethoxypropyl)-7-(4-fluorophenyl)-6,7-dihydro-5H-cyclopenta[d]pyrimidine-2,4-diamine]
0.01 to 0.1		CNc1nc(Nc2ccc(-n3cnc(Cl)c3)c(OC)c2)nc2c1C(=O)CC2c1ccccc1 (racemic) [Example 200, (±)-2-(4-(4-chloro-1H-imidazol-1-yl)-3-methoxyphenylamino)-4-(methylamino)-7-phenyl-6,7-dihydro-5H-cyclopenta[d]pyrimidin-5-one]
	IC50 [2]: 0.29 µM	COc1cc(Nc2nc3c(c(N4C[C@@H](C)O[C@@H](C)C4)n2)COC3c2ccc(F)cc2)ccc1-n1cnc(Cl)c1 (stereo partly drawn) [Example 84B, N-(4-(4-chloro-1H-imidazol-1-yl)-3-methoxyphenyl)-4-((2S,6R)-2,6-dimethylmorpholino)-7-(4-fluorophenyl)-5,7-dihydrofuro[3,4-d]pyrimidin-2-amine]
0.1 to 1		CNc1nc(Nc2ccc(C(F)(F)F)cc2)nc2c1CCC2c1ccccc1 (stereo not shown) [Example 239, N4-methyl-7-phenyl-N2-(4-(trifluoromethyl)phenyl)-6,7-dihydro-5H-cyclopenta[d]pyrimidine-2,4-diamine]
> 1		CNc1nc(Nc2ccnc(C)c2)nc2c1CCC2c1ccccc1 (stereo not shown) [Example 216, N4-methyl-N2-(2-methylpyridin-4-yl)-7-phenyl-6,7-dihydro-5H-cyclopenta[d]pyrimidine-2,4-diamine]
	IC50 [2]: 0.054 µM	CCNc1nc(Nc2ccc(-n3cnc(Cl)c3)c(OC)c2)nc2c1CN(CC(F)(F)F)CC2c1ccccc1 (stereo not shown) [Example 196B]
	IC50 [2]: 0.019 µM	CNc1nc(Nc2ccc(-n3cnc(C#N)c3)c(OC)c2)nc2c1CCC2c1ccccc1 (stereo not shown) [Example 204, 1-(2-methoxy-4-(4-(methylamino)-7-phenyl-6,7-dihydro-5H-cyclopenta[d]pyrimidin-2-ylamino)phenyl)-1H-imidazole-4-carbonitrile]
0.0015 to 0.0099		CNc1nc(Nc2ccc(-c3ccnc(C)c3)c(OC)c2)nc2c1CCC2c1ccccc1 (stereo not shown) [Example 261, N2-(3-methoxy-4-(2-methylpyridin-4-yl)phenyl)-N4-methyl-7-phenyl-6,7-dihydro-5H-cyclopenta[d]pyrimidine-2,4-diamine]
	IC50 [2]: 0.0098 µM	CCNc1nc(Nc2ccc(-n3cnc(C)n3)c(F)c2)nc2c1CN(S(C)(=O)=O)CC2c1ccc(F)cc1 (stereo not shown) [Example 156A, N4-ethyl-N2-(3-fluoro-4-(3-methyl-1H-1,2,4-triazol-1-yl)pheny)-8-(4-fluorophenyl)-6-(methylsulfonyl)-5,6,7,8-tetrahydropyrido[4,3-d]pyrimidine-2,4-diamine]
	IC50 [3]: 0.0015 to 0.0099 µM	CNc1nc(Nc2ccc(-n3ncnc3C)c(F)c2)nc2c1COC2c1ccc(F)cc1 (stereo not shown) [Example 82A, N2-(3-fluoro-4-(5-methyl-1H-1,2,4-triazol-1-yl)phenyl)-7-(4-fluorophenyl)-N4-methyl-5,7-dihydrofuro[3,4-d]pyrimidine-2,4-diamine]
0.01 to 0.1		COc1cc(Nc2nc3c(c(N4CC(F)(F)C4)n2)CCC3c2ccc(F)cc2)ccc1-n1cnc(Cl)n1 (racemic) [Example 17, N-(4-(3-chloro-1H-1,2,4-triazol-1-yl)-3-methoxyphenyl)-4-(3,3-difluoroazetidin-1-yl)-7-(4-fluorophenyl)-6,7-dihydro-5H-cyclopenta[d]pyrimidin-2-amine]
0.0015 to 0.0099		CCNc1nc(Nc2ccc(-n3cnc(Cl)c3)c(OC)c2)nc2c1COCC2c1ccc(C#N)cc1 (stereo not shown) [Example 121A, 4-(2-(4-(4-chloro-1H-imidazol-1-yl)-3-methoxyphenylamino)-4-(ethylamino)-7,8-dihydro-5H-pyrano[4,3-d]pyrimidin-8-yl)benzonitrile]
> 1		CNc1nc(Nc2ccc(C(C)(C)C)cc2)nc2c1CCC2c1ccccc1 (stereo not shown) [Example 234, N2-(4-tert-butylphenyl)-N4-methyl-7-phenyl-6,7-dihydro-5H-cyclopenta[d]pyrimidine-2,4-diamine]
0.01 to 0.1		CNc1nc(Nc2ccc(-n3ncnc3C)c(F)c2)nc2c1CCC2c1ccccc1 (stereo not shown) [Example 3, N2-(3-fluoro-4-(5-methyl-1H-1,2,4-triazol-1-yl)phenyl)-N4-methyl-7-phenyl-6,7-dihydro-5H-cyclopenta[d]pyrimidine-2,4-diamine]
0.01 to 0.1		CNc1nc(Nc2ccc(C(C)=O)cc2)nc2c1CCC2c1ccccc1 (stereo not shown) [Example 257, 1-(4-(4-(methylamino)-7-phenyl-6,7-dihydro-5H-cyclopenta[d]pyrimidin-2-ylamino)phenyl)ethanone]
	IC50 [2]: 0.175 µM	CCNc1nc(Nc2ccc(-n3ncnc3C)c(F)c2)nc2c1CN(CC(F)F)CC2c1ccccc1 (stereo not shown) [Example 194B, 6-(2,2-difluoroethyl)-N4-ethyl-N2-(3-fluoro-4-(5-methyl-1H-1,2,4-triazol-1-yl)phenyl)-8-phenyl-5,6,7,8-tetrahydropyrido[4,3-d]pyrimidine-2,4-diamine]
	IC50 (class symbols, TFA, read-out: Activity Rating (Aβ42 cellular IC50)): 0.0015 to 0.0099 µM	COc1cc(Nc2nc(N[C@@H](C)C3CC3)c3c(n2)C(c2ccc(F)cc2)CC3)ccc1-n1cnc(Cl)c1 (mixture of isomers) [Example 50, N2-(4-(4-chloro-1H-imidazol-1-yl)-3-methoxyphenyl)-N4-((S)-1-cyclopropylethyl)-7-(4-fluorophenyl)-6,7-dihydro-5H-cyclopenta[d]pyrimidine-2,4-diamine, TFA]
	IC50 [3]: 0.01 to 0.1 µM	CNc1nc(Nc2ccc(-n3ncnc3C)c(F)c2)nc2c1COC2c1ccc(F)cc1 (stereo not shown) [Example 82B, N2-(3-fluoro-4-(5-methyl-1H-1,2,4-triazol-1-yl)phenyl)-7-(4-fluorophenyl)-N4-methyl-5,7-dihydrofuro[3,4-d]pyrimidine-2,4-diamine]
	IC50 [3]: 0.0015 to 0.0099 µM	CCNc1nc(Nc2ccc(-n3cnc(Cl)c3)c(OC)c2)nc2c1CN(C(=O)COC)CC2c1ccccc1 (stereo not shown) [Example 133A, 1-(2-(4-(4-chloro-1H-imidazol-1-yl)-3-methoxyphenylamino)-4-(ethylamino)-8-phenyl-7,8-dihydropyrido[4,3-d]pyrimidin-6(5H)-yl)-2-methoxyethanone]
0.01 to 0.1		COc1cc(Nc2nc3c(c(N(C)C)n2)CCC3c2ccc(OC(F)(F)F)cc2)ccc1-n1cnc(Cl)c1 (single isomer, unassigned) [Example 100B, N^2-(4-(4-chloro-1H-imidazol-1-yl)-3-methoxyphenyl)-N^4,N^4-dimethyl-7-(4-(trifluoromethoxy)phenyl)-6,7-dihydro-5H-cyclopenta[d]pyrimidine-2,4-diamine]
